From patent US6602519B1, “Oxidized thymosin β4” (The University Court of the University of Glasgow, priority 1998, dated 2003)
“Also recorded” adds a separate entry of the source.

Experiments:
G-actin = conditions: high salt conditions; cited from earlier work
human neutrophils = experiment: Cell tracking assay (neutrophil locomotion); type: cell-based; conditions: uniform concentration
Experimental: Neutrophils were obtained as described by Chettibi et al. [1993]. Briefly, whole blood was mixed with 1:10 v/v of 5% dextran and allowed to sediment at 37° C. for 1 hour. The leucocyte rich plasma was layered over Nycoprep 1.077 and centrifuged at 750 g for 15 minutes. Erythrocytes in the resulting pellet were removed by hypotonic lysis and neutrophils were washed twice with balanced salt solution (BSS). The cells were checked for viability by trypan blue exclusion (generally greater than 96% viable).
Automated cell-tracking migration chambers were made as previously described [Chettibi et al., 1993] and placed on the stage of an inverted phase-contrast microscope within a temperature controlled (37° C.) transparent box and locomotion observed by means of a video camera connected to a monochrome monitor and also to an Acorn A5000 computer with a Watford video digitiser programmed to capture and analyze one frame every 5 seconds. Data was obtained from a maximum of 80 selected cells and used to calculate instantaneous speed, the 2-dimensional diffusion coefficient and the locomotion persistence time, using the described procedure to eliminate the contribution of systematic drift [Chettibi et al., 1994].

[1] = tested on: Human umbilical vein endothelial cells (HUVEC); experiment: Scratch wound assay (endothelial sheet wound closure); type: cell-based
Experimental: Scratch wound assay: Human umbilical vein endothelial cells (HUVEC) were grown to confluency in multiwell dishes (Corning) and a scratch made across the diameter of each well with a sterile pipette tip. The resulting wound (approx. 1 mm) was then measured before the addition of Tβ4 or Tβ4so and at 45 min intervals.

[2] = tested on: carrageenan-induced footpad swelling; experiment: Carrageenan induced oedema test; type: in vivo, BALB/c mice; conditions: for reduction of carrageenan-induced oedema: 800 ng doses
Experimental: Induction of Inflammatory Response to Carrageenin: Groups of mice were injected subcutaneously in one hind paw with 300 μg carrageenin mixed the thymosin β4, native or sulphoxide in a final volume of 50 μl. Control animals were injected with the same volume of saline. Footpad swelling was measured using a spring-dial calliper, and expressed as the difference in swelling between the carrageenin-injected paw and the uninjected, contralateral paw. The animals were injected intraperitoneally (i.p.) With the same dose of thymosin β4, native or sulphoxide and footpad measurements made at 6, 24, 48 and 72 hours.

[3] = tested on: fMLP-induced chemotaxis of human neutrophils; experiment: Chemotaxis assay (modified Boyden chamber); type: cell-based; conditions: for chemotactic activity of the substance itself: Boyden chamber; for inhibition of chemotaxis to fMLP: substance in upper chamber, fMLP in lower chamber
Experimental: Filters (Sartorius membrane filter 3 μm pore) were cut and glued to a modified iml syringe barrel. 300 μl of 2×10^6/ml neutrophils were added to 300 μl antagonist and 200 μl of the suspension was added to the upper chamber (syringe barrel). The lower chamber (a 5 ml beaker), contained 3.6 ml of agonist. After 45 minutes, the cells were fixed in 70% ethanol for 5 minutes. This procedure also removes the filter from the syringe barrel by dissolving the glue. The filters were placed in a multi-well dish and treated as follows: distilled water for 2 minutes, Harris haematoxylin 1 minute, distilled water 1 min, Scotts Tap water (1:1 0.7% sodium bicarbonate:4% Magnesium sulphate (v/v) for 5 minutes, 70% ethanol 3 mins, 95% ethanol 3 minutes and 80%:20% ethanol:butanol (v/v) 5 minutes. The filters were cleared in xylene for 5 minutes, mounted in DEPEX and examined under bright field illumination with a 40× objective. Five randomly selected fields were counted for each filter.

Substance | concentration needed to inhibit actin polymerisation relative to thymosin β4 (G-actin) [fold] | dispersive locomotion of neutrophils (human neutrophils) | wound healing (closure rate of scratch on endothelial monolayer) [1] | potency in wound closure relative to native peptide ([1]; oxidised versus native peptide) | suppression of footpad swelling ([2]; 10 ng dose) | suppression of footpad swelling ([2]; 100 ng dose) | reduction of carrageenan-induced oedema [2] | suppression of footpad swelling ([2]; administration 30 minutes prior to, during and 6 hours after carrageenan, evident after 6 h, sustained up to 24 hours) | chemotactic activity of the substance itself [3] | potency of inhibition of chemotaxis relative to native Tβ4 ([3]; oxidised versus native peptide) | inhibition of chemotaxis to fMLP [3] | suppression of footpad swelling ([2]; 1000 ng dose)
oxidised thymosin β4 [Tβ4so] | 20 | dispersive at low concentrations | promotes would healing | at least an order of magnitude higher potency | ineffective | ineffective | significantly reduced | significant suppression of swelling | neither was chemotactic | an order of magnitude more potent; also recorded: tenfold more inhibitory | both inhibited | 
thymosin β4 (SDKPDMAEIEKFDKSKLKKTETQEKNPLPSKETIEQEKQAGES; UniProt P62328 2-44, looked up) [Tβ4, native, non-oxidised thymosin β4 prepared from human neutrophils by HPLC, reference compound] |  | did not give significant dispersive locomotion | promotes would healing |  |  |  | only the oxidised peptide significantly reduced |  | neither was chemotactic |  | both inhibited | ineffective
